The record followed here is article PMC2749132 (The Journal of Biological Chemistry, 2009).

The target of this test is T1, MBP-MtHPS (MtHPS, HPS, halimadienyl-diphosphate synthase, Rv3377c) (Mycobacterium tuberculosis, UniProt O50406).
T1 sequence (O50406 1-501): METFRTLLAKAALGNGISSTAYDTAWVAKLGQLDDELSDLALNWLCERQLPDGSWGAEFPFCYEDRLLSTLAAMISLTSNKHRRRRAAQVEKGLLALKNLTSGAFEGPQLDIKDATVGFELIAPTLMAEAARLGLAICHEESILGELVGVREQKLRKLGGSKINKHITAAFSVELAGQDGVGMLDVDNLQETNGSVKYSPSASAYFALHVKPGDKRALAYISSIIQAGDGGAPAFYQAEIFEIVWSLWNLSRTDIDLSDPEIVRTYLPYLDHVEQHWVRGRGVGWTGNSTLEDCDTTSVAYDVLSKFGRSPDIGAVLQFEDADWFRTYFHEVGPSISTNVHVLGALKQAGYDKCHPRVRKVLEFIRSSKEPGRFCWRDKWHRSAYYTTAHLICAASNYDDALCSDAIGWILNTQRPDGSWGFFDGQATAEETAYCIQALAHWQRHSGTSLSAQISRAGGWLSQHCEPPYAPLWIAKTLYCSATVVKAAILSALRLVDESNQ
The test can be described thus: GC-FID conversion of GGPP to HPP, substrate inhibition equation. It counts as biochemical. As to conditions: 0.1 mM Mg2+, pH 7.75, 25 nM enzyme, 1 min.

`CC(C)=CCC/C(C)=C/CC/C(C)=C/CC/C(C)=C/COP(=O)(O)OP(=O)(O)O` [1a, GGPP] yielded a Ki of 18 ± 6 µM.
